Data as given in patent publication US4456601A, “3-Chloro-pregnane derivatives and a process for the preparation thereof” (Richter Gedeon Vegyeszeti Gyar Rt., priority 1981, dated 1984).
Like-named read-outs stand apart in the source and are kept apart here. One block for each compound: values may come before it.

Experiments:
[1] = system: granuloma pouch; assay: Granuloma pouch test according to Selye (systemic antiphlogistic effect); format: in vivo
Text: (§1) Systemic antiphlogistic effect
(b) Granuloma pouch test according to Selye [J. Selye: Recent Progr. Horm. Res. 8, 117 (1953)]

[2] = system: cotton granuloma; assay: Local cotton granuloma test (local antiphlogistic effect); format: in vivo
Text: (§2) Local antiphlogistic effect
(b) Local cotton granuloma test [B. Silvestrini: Arzneim. Forsch. 19, 30 (1969)]

[3] = system: carrageenin-induced planter oedema; assay: Inhibition of carrageenin-induced planter oedema (systemic antiphlogistic effect); format: in vivo
Text: as §1
(a) Inhibition of carrageenin-induced planter oedema [Winter et al.: J. Pharm. Exp. Therap. […]]

[4] = system: granuloma pouch; assay: Local pouch test according to Selye (local antiphlogistic effect); format: in vivo
Text: as §2
(a) Local pouch test according to Selye [Bianchetti et al.: Arzneim. Forsch. 27, 2096 (1977)]

[5] = system: ear inflammation provoked by croton oil; assay: Inhibition of ear inflammation provoked by croton oil (local antiphlogistic effect); format: in vivo
Text: as §2
(c) Inhibition of ear inflammation provoked by croton oil [Tonelli et al.: Endocrinology 77, 625 (1965)]

[6] = system: cotton granuloma; assay: Cotton granuloma test (systemic antiphlogistic effect); format: in vivo
Text: as §1
(c) Cotton granuloma test [C. A. Winter et al: J. Pharm. Exp. Therap. 141, 369 (1963)]

[7] = molecular target: T1, rat liver glucocorticoid receptors (Rattus norvegicus, UniProt P06536); assay: Affinity to rat liver glucocorticoid receptors (method of Baxter et al.); format: binding
T1 construct: from tissue; host or cells: rat liver
T1 sequence (P06536 1-795): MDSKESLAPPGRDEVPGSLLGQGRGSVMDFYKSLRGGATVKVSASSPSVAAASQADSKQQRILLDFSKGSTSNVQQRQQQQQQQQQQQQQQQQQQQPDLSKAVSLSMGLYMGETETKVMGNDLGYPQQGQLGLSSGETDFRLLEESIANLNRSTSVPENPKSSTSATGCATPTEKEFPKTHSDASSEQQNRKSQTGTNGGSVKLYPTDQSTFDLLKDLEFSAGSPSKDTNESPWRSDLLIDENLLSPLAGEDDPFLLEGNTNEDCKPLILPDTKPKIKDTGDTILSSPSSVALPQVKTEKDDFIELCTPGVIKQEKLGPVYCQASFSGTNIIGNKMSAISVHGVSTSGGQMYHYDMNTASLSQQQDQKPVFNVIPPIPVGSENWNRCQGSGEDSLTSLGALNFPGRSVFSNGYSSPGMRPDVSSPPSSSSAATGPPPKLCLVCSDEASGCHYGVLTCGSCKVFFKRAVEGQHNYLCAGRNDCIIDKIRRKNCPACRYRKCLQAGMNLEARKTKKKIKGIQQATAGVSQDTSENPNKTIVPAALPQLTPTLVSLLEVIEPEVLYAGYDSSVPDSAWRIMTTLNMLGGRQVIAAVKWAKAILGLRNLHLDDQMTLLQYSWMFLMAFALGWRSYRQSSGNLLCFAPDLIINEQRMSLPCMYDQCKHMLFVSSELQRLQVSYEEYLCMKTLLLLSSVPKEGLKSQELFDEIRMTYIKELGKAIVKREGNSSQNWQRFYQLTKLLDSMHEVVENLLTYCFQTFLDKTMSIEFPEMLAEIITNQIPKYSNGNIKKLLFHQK
Text: A. Munck and K. Leung: "Receptors and Mechanism of Action of Steroid Hormones", Ed.

[8] = system: thymus weight; assay: Thymus involution (reduction of thymus weight) in rats; format: in vivo
Procedure: (§3) It is known that glucocorticoids cause thymus involution [O. Greengard, R. Machovich: "Hydrocortisone Regulation of Thymidine Kinase in Thymus Involution and Hematopoietic Tissues", Biochem. Biophys. Acta 286, 382-388 (1972)], 50% reduction of thymus weight was observed on chickens with a dose of 0.01 mg/100 g and on rats with a dose of 0.001 mg/100 g for both TCA and 3-chloro-TCA.

[9] = system: thymus weight; assay: Thymus involution (reduction of thymus weight) in chickens; format: in vivo
Procedure: as §3

[10] = molecular target: T1, rat liver glucocorticoid receptors; settings: on the basis of literature data (Munck and Leung); read-out: apparent dissociation constant; cited from earlier work
[11] = rat liver glucocorticoid receptors, read-out: apparent dissociation constant

SMILES: CC(=O)OCC(=O)[C@@]12OC(C)(C)O[C@@H]1C[C@H]1[C@@H]3CC=C4C=C(Cl)C=C[C@]4(C)[C@@]3(F)[C@@H](O)C[C@@]12C [3-Chloro-TCA-21-acetate, 3-chloro-9α-fluoro-11β,16α,17α,21-tetrahydroxy-pregna-1,3,5-triene-20-one-16,17-acetonide-21-acetate]
- Inhibition % ([1]; 0.5 mg/kg s.c.): 56.6%
- Inhibition % ([1]; 1.5 mg/kg s.c.): 73.3%
- Inhibition % ([2]; 0.033 mg/cotton): 52.4%
- Inhibition % ([2]; 0.10 mg/cotton): 35.3%
- Inhibition % ([3]; 2 mg/kg p.o.): 8.9%
- Inhibition % ([3]; 6 mg/kg p.o.): 9.6%
- Inhibition % ([4]; 0.033 mg/pouch): 12.4%
- Inhibition % ([4]; 0.10 mg/pouch): 26.3%
- Inhibition % ([5]; 0.02 mg/ml): 10.0%
- Inhibition % ([5]; 0.10 mg/ml): 17.8%
- Inhibition % ([6]; 0.5 mg/kg s.c.): 33.0%
- Inhibition % ([6]; 1.5 mg/kg s.c.): 91.0%

SMILES: CC1(C)O[C@@H]2C[C@H]3[C@@H]4CCC5=CC(=O)C=C[C@]5(C)[C@@]4(F)[C@@H](O)C[C@]3(C)[C@]2(C(=O)CO)O1 [TCA, 9α-fluoro-11β,16α,17α,21-tetrahydroxy-pregna-1,4-diene-3,20-dione-16,17-acetonide, reference compound]
- dose giving 50% reduction of thymus weight [8]: 0.001 mg/100 g
- dose giving 50% reduction of thymus weight [9]: 0.01 mg/100 g
- Kd [10]: 0.01 µM

SMILES: CC1(C)O[C@@H]2C[C@H]3[C@@H]4C[C@H](F)C5=CC(=O)C=C[C@]5(C)[C@@]4(F)[C@@H](O)C[C@]3(C)[C@]2(C(=O)CO)O1 [fluocinolon-acetonide, 6α,9α-difluoro-11β,16α,17α,21-tetrahydro-pregna-1,4-diene-3,20-dione-16,17-acetonide, reference compound]
- Kd [7]: 0.015 µM

Now from value to compound, other results behind:

- Kd [7, 11]: 0.06 µM
SMILES: CC1(C)O[C@@H]2C[C@H]3[C@@H]4CC(Br)=C5C=C(Cl)C=C[C@]5(C)[C@@]4(F)[C@@H](O)C[C@]3(C)[C@]2(C(=O)CO)O1 [3-chloro-6-bromo-TCA, 3-chloro-6-bromo-9α-fluoro-11β,16α,17α,21-tetrahydroxy-pregna-1,3,5-triene-20-one-16,17-acetonide]

- Kd [7, 11]: 0.03 µM
SMILES: CC1(C)O[C@@H]2C[C@H]3[C@@H]4CC=C5C=C(Cl)C=C[C@]5(C)[C@@]4(F)[C@@H](O)C[C@]3(C)[C@]2(C(=O)CO)O1 [Example 3-Chloro-TCA, 3-chloro-9α-fluoro-11β,16α,17α,21-tetrahydroxy-pregna-1,3,5-triene-20-one-16,17-acetonide]
- Inhibition % ([1]; 0.5 mg/kg s.c.): 90.8%
- Inhibition % ([1]; 1.5 mg/kg s.c.): 90.1%
- Inhibition % ([2]; 0.033 mg/cotton): 24.1%
- Inhibition % ([2]; 0.10 mg/cotton): 51.4%
- Inhibition % ([3]; 2 mg/kg p.o.): 30.2%
- Inhibition % ([3]; 6 mg/kg p.o.): 38.7%
- dose giving 50% reduction of thymus weight [8]: 0.001 mg/100 g
- Inhibition % ([4]; 0.033 mg/pouch): 26.0%
- Inhibition % ([4]; 0.10 mg/pouch): 32.3%
- Inhibition % ([5]; 0.02 mg/ml): 30.0%
- Inhibition % ([5]; 0.10 mg/ml): 52.9%
- dose giving 50% reduction of thymus weight [9]: 0.01 mg/100 g
- Inhibition % ([6]; 0.5 mg/kg s.c.): 22.0%
- Inhibition % ([6]; 1.5 mg/kg s.c.): 26.0%

- Kd [7, 11]: 0.025 µM
SMILES: CC1(C)O[C@@H]2C[C@H]3[C@@H]4CC(F)=C5C=C(Cl)C=C[C@]5(C)[C@@]4(F)[C@@H](O)C[C@]3(C)[C@]2(C(=O)CO)O1 [Example 3-chloro-FCA, 3-chloro-6,9α-difluoro-11β,16α,17α,21-tetrahydroxy-pregna-1,3,5-triene-20-one-16,17-acetonide]
